{"source": "patent US20080120039A1", "about": "“HORMONE AND DRUG CONCENTRATIONS IN THE PORTAL VEIN AND HEPATIC SINUSOIDS” (Entelos, Inc., priority 2005, published 2008)", "key": {"[1]": {"test": "Glucagon infusions with somatostatin; metabolic clearance of glucagon", "format": "in vivo, human", "text": "FIGS. 3A and 3B provide graphs of plasma glucagon concentrations during different glucagon infusion rates in human subjects. FIG. 3A illustrates data from studies that report lower glucagon concentrations during glucagon infusions (Chhibber, et al. Metabolism 49(1):39-46 (2000) and Matsuda, et al. Metabolism 51(9):1111-1119 (2002)) and FIG. 3B illustrates data from studies that report higher glucagon concentrations during glucagon infusions (Nielsen, et al., Diabetes 46(12):2007-2016 (1997) and Andrews, et al., J. Clin. Endocrinol. Metab. 88(1):285-291 (2003)). The equation for the regression line in FIG. 3A is y=0.41x+60.15 with r^2=0.96 and the regression line in FIG. 3B is y=x+69.5 with r=0.97.\nDifferent research groups report considerably different glucagon concentrations in response to plasma glucagon infusions. In FIG. 3A, the regression line yields m=0.00041 min/ml, whereas for the regression line for 3B yields m=0.001 min/ml. These differences lead to considerable differences in predicted portal glucagon concentrations in both fasted and fed conditions, as described below. The MCR for glucagon has been reported to be between 7-14 ml/kg/min; taking the reciprocal of the MCR for a 70 kg individual gives m=0.001-0.002 min/ml. As a result of the variability in the reported measurements for this parameter, two different possibilities are considered in the analyses: one where m=0.00041 and another where m=0.001 min/ml."}, "[2]": {"conditions": "reported; cited from earlier work"}, "[3]": {"conditions": "cited from earlier work"}, "[4]": {"conditions": "pigs; cited from earlier work"}, "[5]": {"conditions": "dogs; cited from earlier work"}, "[6]": {"conditions": "sheep; cited from earlier work"}, "[7]": {"conditions": "rats; cited from earlier work"}, "[8]": {"conditions": "healthy patients; cited from earlier work"}, "[9]": {"conditions": "cited from earlier work", "remark": "listed apart in the source"}}, "note": "Like-named read-outs stand apart in the source and are kept apart here.", "data": [{"substance": "glucagon", "values": [{"measurement": "m as reciprocal of reported MCR", "setting": "[1]; for a 70 kg individual", "value": "0.001 to 0.002", "unit": "min/mL"}, {"measurement": "m (slope of plasma glucagon concentration versus infusion rate)", "setting": "[1]; studies with higher glucagon concentrations (FIG. 3B)", "value": "0.001 min/ml and ≈ 0.001 min/ml"}, {"measurement": "m (slope of plasma glucagon concentration versus infusion rate)", "setting": "[1]; studies with lower glucagon concentrations (FIG. 3A), about twice the somatostatin rate", "value": "0.00041 min/ml and ≈ 0.0004 min/ml"}, {"measurement": "MCR for glucagon", "setting": "[2]", "value": "7 to 14", "unit": "mL/kg/min"}, {"measurement": "hepatic glucagon extraction in humans", "setting": "[3]; Felig et al.", "value": "little or no hepatic glucagon extraction"}, {"measurement": "portal glucagon concentration relative to systemic plasma", "setting": "[3]; reported in the literature", "value": "1.3-3.0 times higher"}, {"measurement": "hepatic glucagon extraction, f", "setting": "[4]", "value": "≈ 0.1"}, {"measurement": "hepatic glucagon extraction, f", "setting": "[5]", "value": "≈ 0.2"}, {"measurement": "hepatic glucagon extraction, f", "setting": "[6]", "value": "≈ 0.07"}, {"measurement": "hepatic glucagon extraction, f", "setting": "[7]", "value": "≈ 0.5"}]}, {"substance": "insulin", "values": [{"measurement": "m as reciprocal of reported MCR", "setting": "for a 70 kg patient", "value": "0.0005 to 0.001", "unit": "min/mL"}, {"measurement": "m (slope of steady-state systemic plasma concentration versus exogenous infusion rate; reciprocal of MCR)", "setting": "insulin infusions with somatostatin, healthy individuals, studies of FIG. 2, 70 kg individual", "value": "0.0007 min/ml and approximately 0.0007 min/ml"}, {"measurement": "metabolic clearance rate (MCR) of insulin", "setting": "[8]", "value": "13 to 27", "unit": "mL/kg/min"}, {"measurement": "fractional extraction of insulin by the liver, f", "setting": "[9]; most estimates", "value": "0.5-0.7"}, {"measurement": "fractional extraction of insulin by the liver, f", "setting": "[9]; portal catheterization study and mathematical models based on insulin and c-peptide concentrations", "value": "≈ 0.5"}, {"measurement": "fractional extraction of insulin by the liver, f", "setting": "[9]; splanchnic balance studies", "value": 0.7}]}]}
